Measured values from patent publication US20090214529A9, “KINESIN INHIBITORS” (TaiGen Biotechnology Co., Ltd., priority 2007, published 2009).

System: tumor cell
Test: Cytotoxicity assay (MTS)
Format: cell-based
Details: 72 h; incubation for three days; read-out: IC50, tumor cell growth inhibition (MTS)
Experimental: The efficacy of a test compound in inhibiting tumor cell growth was analyzed using a MTS assay. The MTS assay is a calorimetric method for the determination of viable cells in proliferation by using a tetrazolium compound (3-(4,5-dimethylthiazol-2-yl)-5-(3-[…])-2-(4-sulfophenyl)-2H-tetrazolium, inner salt; MTS) and an electron-coupling agent (phenazine methosulfate; PMS). The MTS reagent is converted by dehydrogenase enzymes in metabolically active cells into a formazan that is soluble in a tissue culture medium.
In this assay, tumor cell suspensions (30 μl/well) were seeded into 384-well flat-bottomed tissue culture plates at an appropriate density overnight. A fresh medium (3 μl/well) containing varying concentrations of a test compound or vehicle was added to the culture followed by incubation for three days. At the end of the incubation, all plates were processed simultaneously as follows: The culture medium was aspirated, a MTS cell proliferation assay (Promega) solution (30 μl/well) was added, and the plates were incubated at 37° C. for about 2 hours. Absorbance (a parameter proportional to the cell mass) was measured at 490 nm using a Multiskan (Thermo Electron Corporation, Waltham, Mass.). Inhibition effects were expressed as corrected T/C values for each test compound according to the following equation:
T/C=(T−Blank)/(C−Blank)×100(%),
where T is the mean absorbance of the treated cells, C is the mean absorbance of the controls, and Blank is the mean absorbance of the cell free well.

Row | Compound | IC50 [µM]
1 | Cc1ccc(C(=O)N(CCCN)C(c2nc3c(oc4ccc(F)cc43)c(=O)n2Cc2cc(Br)co2)C(C)C)cc1 (stereo not shown) [Compound 93] | < 30
2 | Cc1ccc(C(=O)N(CCN)C(c2nc3c(oc4ccc(Cl)cc43)c(=O)n2Cc2cc(C)cs2)C(C)C)cc1 (stereo not shown) [Compound 94] | < 30
3 | Cc1ccc(C(=O)N(CCCN)C(c2nc3c(oc4ccc(Cl)cc43)c(=O)n2Cc2cc(C)cs2)C(C)C)cc1 (stereo not shown) [Compound 95] | < 30
4 | Cc1ccc(C(=O)N(CCN)C(c2nc3c(oc4ccc(Cl)cc43)c(=O)n2Cc2cccc(F)c2)C(C)C)cc1 (stereo not shown) [Compound 96] | < 30
5 | Cc1ccc(C(=O)N(CCCN)C(c2nc3c(oc4ccc(Cl)cc43)c(=O)n2Cc2cccc(F)c2)C(C)C)cc1 (stereo not shown) [Compound 97] | < 30
6 | Cc1ccc(C(=O)N(CCN)C(c2nc3c(oc4ccc(F)cc43)c(=O)n2Cc2ccc(C(N)=O)s2)C(C)C)cc1 (stereo not shown) [Compound 98] | < 30
7 | Cc1ccc(C(=O)N(CCN)C(c2nc3c(oc4ccc(Cl)cc43)c(=O)n2Cc2cc(Br)co2)C(C)C)cc1 (stereo not shown) [Compound 99] | < 30
8 | Cc1ccc(C(=O)N(CCN)C(c2nc3c(oc4ccc(Cl)cc43)c(=O)n2Cc2ccc(Cl)o2)C(C)C)cc1 (stereo not shown) [Compound 100] | < 30
9 | Cc1ccc(C(=O)N(CCN)C(c2nc3c(oc4ccc(Cl)cc43)c(=O)n2Cc2ccc(C(F)(F)F)o2)C(C)C)cc1 (stereo not shown) [Compound 101] | < 30
10 | COC(=O)c1ccc(Cn2c(C(C(C)C)N(CCN)C(=O)c3ccc(C)cc3)nc3c(oc4ccc(F)cc43)c2=O)o1 (stereo not shown) [Compound 102] | < 30
11 | Cc1ccc(C(=O)N(CCN)C(c2nc3c(oc4ccc(Cl)cc43)c(=O)n2Cc2ccc(Br)o2)C(C)C)cc1 (stereo not shown) [Compound 103] | < 30
12 | Cc1ccc(C(=O)N(CCN)C(c2nc3c(oc4ccc(F)cc43)c(=O)n2Cc2cccc(C)c2)C(C)C)cc1 (stereo not shown) [Compound 104] | < 30
13 | Cc1ccc(C(=O)N(CCN)C(c2nc3c(oc4ccc(F)cc43)c(=O)n2Cc2ccccc2)C(C)C)cc1 (stereo not shown) [Compound 105] | < 30
14 | Cc1ccc(C(=O)N(CCCN)C(c2nc3c(oc4cc(F)ccc43)c(=O)n2Cc2ccccc2)C(C)C)cc1 (stereo not shown) [Compound 106] | < 30
15 | Cc1ccc(C(=O)N(CCN)C(c2nc3c(oc4cc(Cl)ccc43)c(=O)n2Cc2ccccc2)C(C)C)cc1 (stereo not shown) [Compound 107] | < 30
16 | Cc1ccc(C(=O)N(CCCN)C(c2nc3c(oc4cc(Cl)ccc43)c(=O)n2Cc2ccccc2)C(C)C)cc1 (stereo not shown) [Compound 108] | < 30
17 | Cc1ccc(C(=O)N(CCN)C(c2nc3c(oc4cc(F)ccc43)c(=O)n2Cc2cc(C)cs2)C(C)C)cc1 (stereo not shown) [Compound 109] | < 30
18 | Cc1ccc(C(=O)N(CCN)C(c2nc3c(oc4cc(F)ccc43)c(=O)n2Cc2ccc(Cl)s2)C(C)C)cc1 (stereo not shown) [Compound 110] | < 30
19 | Cc1ccc(C(=O)N(CCN)C(c2nc3c(oc4ccc(F)cc43)c(=O)n2Cc2ccc(C#N)o2)C(C)C)cc1 (stereo not shown) [Compound 111] | < 30
20 | Cc1ccc(C(=O)N(CCN)C(c2nc3c(oc4ccc(F)cc43)c(=O)n2Cc2cc(C#N)cs2)C(C)C)cc1 (stereo not shown) [Compound 112] | < 30
21 | Cc1ccc(C(=O)N(CCN)C(c2nc3c(oc4ccc(F)cc43)c(=O)n2Cc2ccc(C(N)=O)o2)C(C)C)cc1 (stereo not shown) [Compound 113] | < 30

Row | Compound | IC50 [µM]
22 | Cc1ccc(C(=O)N(CCN)C(c2nc3c(oc4ccc(F)cc43)c(=O)n2Cc2ccc(C(=O)N(C)C)s2)C(C)C)cc1 (stereo not shown) [Compound 115] | < 30
23 | CCNC(=O)c1ccc(Cn2c(C(C(C)C)N(CCN)C(=O)c3ccc(C)cc3)nc3c(oc4ccc(F)cc43)c2=O)s1 (stereo not shown) [Compound 116] | < 30
24 | CCN(CC)C(=O)c1ccc(Cn2c(C(C(C)C)N(CCN)C(=O)c3ccc(C)cc3)nc3c(oc4ccc(F)cc43)c2=O)s1 (stereo not shown) [Compound 117] | < 30
25 | CNC(=O)c1ccc(Cn2c(C(C(C)C)N(CCN)C(=O)c3ccc(C)cc3)nc3c(oc4ccc(F)cc43)c2=O)o1 (stereo not shown) [Compound 118] | < 30
26 | Cc1ccc(C(=O)N(CCN)C(c2nc3c(oc4ccc(F)cc43)c(=O)n2Cc2ccc(C(=O)NC(C)C)o2)C(C)C)cc1 (stereo not shown) [Compound 119] | < 30
27 | Cc1ccc(C(=O)N(CCN)C(c2nc3c(oc4ccc(F)cc43)c(=O)n2Cc2ccc(C(=O)NCC(F)F)s2)C(C)C)cc1 (stereo not shown) [Compound 120] | < 30
28 | C#CCNC(=O)c1ccc(Cn2c(C(C(C)C)N(CCN)C(=O)c3ccc(C)cc3)nc3c(oc4ccc(F)cc43)c2=O)s1 (stereo not shown) [Compound 121] | < 30
29 | Cc1ccc(C(=O)N(CCN)C(c2nc3c(oc4ccc(F)cc43)c(=O)n2Cc2cccc(Cl)c2)C(C)C)cc1 (stereo not shown) [Compound 122] | < 30
30 | Cc1ccc(Cn2c(C(C(C)C)N(CCN)C(=O)c3ccc(C)cc3)nc3c(oc4ccc(F)cc43)c2=O)cc1 (stereo not shown) [Compound 123] | < 30
31 | Cc1ccc(C(=O)N(CCN)C(c2nc3c(oc4ccc(F)cc43)c(=O)n2Cc2cccc(Br)c2)C(C)C)cc1 (stereo not shown) [Compound 124] | < 30
32 | Cc1ccc(C(=O)N(CCN)C(c2nc3c(oc4ccc(Cl)cc43)c(=O)n2Cc2ccco2)C(C)C)cc1 (stereo not shown) [Compound 125] | < 30
33 | Cc1ccc(C(=O)N(CCN)C(c2nc3c(oc4ccc(Cl)cc43)c(=O)n2Cc2ccoc2)C(C)C)cc1 (stereo not shown) [Compound 126] | < 30
34 | Cc1ccc(C(=O)N(CCN)C(c2nc3c(oc4ccc(F)cc43)c(=O)n2Cc2ccco2)C(C)C)cc1 (stereo not shown) [Compound 127] | < 30
35 | Cc1ccc(C(=O)N(CCN)C(c2nc3c(oc4ccc(F)cc43)c(=O)n2Cc2ccoc2)C(C)C)cc1 (stereo not shown) [Compound 128] | < 30
36 | Cc1ccc(C(=O)N(CCN)C(c2nc3c(oc4ccc(Cl)cc43)c(=O)n2Cc2cc(C#N)cs2)C(C)C)cc1 (stereo not shown) [Compound 129] | < 30
37 | Cc1ccc(C(=O)N(CCN)C(c2nc3c(oc4ccc(F)cc43)c(=O)n2Cc2ccc(CO)cc2)C(C)C)cc1 (stereo not shown) [Compound 130] | < 30
38 | Cc1ccc(C(=O)N(CCN)C(c2nc3c(oc4ccc(Cl)cc43)c(=O)n2Cc2ccc(/C=C/O)s2)C(C)C)cc1 (stereo not shown) [Compound 134] | < 30
39 | Cc1ccc(C(=O)N(CCCN)C(c2nc3c(sc4ccccc43)c(=O)n2Cc2ccccc2)C(C)C)cc1 (stereo not shown) [Compound 135] | < 30
40 | Cc1ccc(C(=O)N(CCCN)C(c2nc3c(sc4ccc(F)cc43)c(=O)n2Cc2ccccc2)C(C)C)cc1 (stereo not shown) [Compound 136] | < 30
41 | Cc1ccc(C(=O)N(CCCN)C(c2nc3c(sc4ccc(F)cc43)c(=O)n2Cc2ccccc2)C(C)C)cc1F (stereo not shown) [Compound 137] | < 30
42 | Cc1ccc(C(=O)N(CCCN)C(c2nc3c(sc4ccccc43)c(=O)n2Cc2ccc(Cl)s2)C(C)C)cc1 (stereo not shown) [Compound 138] | < 30

Row | Compound | IC50 [µM]
43 | CC(C)C(c1nc2c(sc3ccc(F)cc32)c(=O)n1Cc1ccccc1)N(CCCN)C(=O)c1ccc(Cl)cc1 (stereo not shown) [Compound 139] | < 30
44 | CC(C)C(c1nc2c(sc3ccc(F)cc32)c(=O)n1Cc1ccccc1)N(CCCN)C(=O)c1ccc(Br)cc1 (stereo not shown) [Compound 140] | < 30
45 | CC(C)C(c1nc2c(sc3ccccc32)c(=O)n1Cc1ccc(Cl)s1)N(CCCN)C(=O)c1ccc(Br)cc1 (stereo not shown) [Compound 141] | < 30
46 | Cc1ccc(C(=O)N(CCCN)C(c2nc3c(sc4ccccc43)c(=O)n2Cc2ccc(Cl)s2)C(C)C)cc1F (stereo not shown) [Compound 142] | < 30
47 | CC(C)C(c1nc2c(sc3ccccc32)c(=O)n1Cc1ccc(Cl)s1)N(CCCN)C(=O)c1ccc(Cl)cc1 (stereo not shown) [Compound 143] | < 30
48 | Cc1ccc(C(=O)N(CCCN)C(c2nc3c(sc4ccccc43)c(=O)n2Cc2ccc(Br)s2)C(C)C)cc1 (stereo not shown) [Compound 144] | < 30
49 | CC(C)C(c1nc2c(sc3ccccc32)c(=O)n1Cc1ccc(Br)s1)N(CCCN)C(=O)c1ccc(Br)cc1 (stereo not shown) [Compound 145] | < 30
50 | Cc1ccc(C(=O)N(CCCN)C(c2nc3c(sc4ccccc43)c(=O)n2Cc2ccc(Br)s2)C(C)C)cc1F (stereo not shown) [Compound 146] | < 30
51 | CC(C)C(c1nc2c(sc3ccccc32)c(=O)n1Cc1ccc(Br)s1)N(CCCN)C(=O)c1ccc(Cl)cc1 (stereo not shown) [Compound 147] | < 30
52 | Cc1ccc(C(=O)N(CCCN)C(c2nc3c(sc4ccccc43)c(=O)n2Cc2cccs2)C(C)C)cc1 (stereo not shown) [Compound 148] | < 30
53 | Cc1ccc(C(=O)N(NCCN)C(c2nc3c(sc4ccccc43)c(=O)n2Cc2ccc(Br)s2)C(C)C)cc1 (stereo not shown) [Compound 149] | < 30
54 | CC(C)C(c1nc2n(c(=O)c1Cc1ccccc1)Cc1ccccc1-2)N(CCCN)C(=O)c1ccc(Cl)cc1 (stereo not shown) [Compound 151] | < 30
55 | Cc1ccc(C(=O)N(CCCN)C(c2nc3n(c(=O)c2Cc2ccccc2)Cc2ccccc2-3)C(C)C)cc1F (stereo not shown) [Compound 152] | < 30
56 | Cc1ccc(C(=O)N(CCC2(N)CCC2)C(c2nc3n(c(=O)c2Cc2ccccc2)Cc2ccccc2-3)C(C)C)cc1 (stereo not shown) [Compound 153] | < 30
57 | Cc1ccc(C(=O)N(CCCN)C(c2nc3n(c(=O)c2Cc2ccccc2)Cc2ccccc2-3)C(C)C)c(F)c1F (stereo not shown) [Compound 154] | < 30
58 | CC(C)C(c1nc2n(c(=O)c1Cc1ccccc1)Cc1ccccc1-2)N(CCCN)C(=O)c1ccc(Br)cc1 (stereo not shown) [Compound 155] | < 30
59 | Cc1ccc(C(=O)N(CCCN)C(c2nc3c(sc4ncccc43)c(=O)n2Cc2ccccc2)C(C)C)cc1 (stereo not shown) [Compound 156] | < 30
60 | Cc1ccc(C(=O)N(CCCN)C(c2nc3c([nH]c4ccc(Br)cc43)c(=O)n2Cc2ccccc2)C(C)C)cc1 (stereo not shown) [Compound 157] | < 30
61 | Cc1ccc(C(=O)N(CCCN)C(c2nc3c([nH]c4ccccc43)c(=O)n2Cc2ccccc2)C(C)C)cc1 (stereo not shown) [Compound 158] | < 30
